Data published in PubChem BioAssay AID1963439 (Molecular Pharmacology Branch, DTP, NCI, 2024).
“And” between values parts separate entries of the source, which are not always exact repeats. Equal entries are not always repeated.

Test system: NCI-H196 complex spheroids with HUVEC/MSC, growth % T/C
Assay: Anticancer human tumor NCI-H196 cell line growth inhibition [Asc];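 further: spheroids exposed to compound for 7 days before measurement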;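 on viability, T/C: 100% = DMSO vehicle control wells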
Details: for viability, T/C: stronger effect = lower value
Outline: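 Complex spheroids combining tumor cells with HUVEC endothelial cells and human MSCs, at 37 degrees C, 5% CO2; agents tested alone or combined, half-log dilutions from at or near clinical Cmax, or 10 microM if Cmax unknown.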

[1] = curve of first compound, second compound 0.1 µM
[2] = curve of first compound, second compound 0.316 µM
[3] = curve of first compound, second compound 1 µM
[4] = curve of first compound, second compound 3.16 µM
[5] = curve of first compound, second compound 10 µM
[6] = second compound 0.1 µM, first compound 0.0316 µM
[7] = second compound 0.1 µM, first compound 0.1 µM
[8] = second compound 0.316 µM, first compound 0.0316 µM
[9] = second compound 0.316 µM, first compound 0.1 µM
[10] = second compound 1 µM, first compound 0.0316 µM
[11] = second compound 1 µM, first compound 0.1 µM
[12] = second compound 3.16 µM, first compound 0.0316 µM
[13] = second compound 3.16 µM, first compound 0.1 µM
[14] = second compound 10 µM, first compound 0.0316 µM
[15] = second compound 10 µM, first compound 0.1 µM

Compound `Cn1ncnc1[C@H]1c2n[nH]c(=O)c3cc(F)cc(c23)N[C@@H]1c1ccc(F)cc1` + Cc1c(S(C)(=O)=O)c(-c2cc(F)cc(N3CCN(c4ccc(NS(=O)(=O)c5ccc(NC(CCN6CCC(C(=O)OCCCP(=O)(O)O)CC6)CSc6ccccc6)c(S(=O)(=O)C(F)(F)F)c5)cc4)CC3)c2)c(-c2ccc(Cl)cc2)n1C(C)C has an IC50 [1] of over 100 nM, an IC50 [2] of over 100 nM and an IC50 [3] of over 100 nM. It also gave an IC50 [4] of over 100 nM, an IC50 [5] of over 100 nM and a viability, T/C (second compound 0.1 µM, first compound 0.000316 µM) of 107%. It also gave a viability, T/C (second compound 0.1 µM, first compound 0.001 µM) of 101%, a viability, T/C (second compound 0.1 µM, first compound 0.00316 µM) of 102% and a viability, T/C (second compound 0.1 µM, first compound 0.01 µM) of 101%. The viability, T/C [6] was 94.8%, the viability, T/C [7] was 98.4% and the viability, T/C (second compound 0.316 µM, first compound 0.000316 µM) was 102%. The viability, T/C (second compound 0.316 µM, first compound 0.001 µM) was 105%, the viability, T/C (second compound 0.316 µM, first compound 0.00316 µM) was 107% and the viability, T/C (second compound 0.316 µM, first compound 0.01 µM) was 95.2%. For the same compound, the viability, T/C [8] was 89%, the viability, T/C [9] was 93.4% and the viability, T/C (second compound 1 µM, first compound 0.000316 µM) was 97%. The viability, T/C (second compound 1 µM, first compound 0.001 µM) was 94.9%, the viability, T/C (second compound 1 µM, first compound 0.00316 µM) was 94.5% and the viability, T/C (second compound 1 µM, first compound 0.01 µM) was 95.7%. It also gave a viability, T/C [10] of 86.2%, a viability, T/C [11] of 94% and a viability, T/C (second compound 3.16 µM, first compound 0.000316 µM) of 93.1%. It also gave a viability, T/C (second compound 3.16 µM, first compound 0.001 µM) of 84.4%, a viability, T/C (second compound 3.16 µM, first compound 0.00316 µM) of 78.5% and a viability, T/C (second compound 3.16 µM, first compound 0.01 µM) of 79.1%. The viability, T/C [12] was 80.1%, the viability, T/C [13] was 80.1% and the viability, T/C (second compound 10 µM, first compound 0.000316 µM) was 77.2%. It also gave a viability, T/C (second compound 10 µM, first compound 0.001 µM) of 85%, a viability, T/C (second compound 10 µM, first compound 0.00316 µM) of 78.7% and a viability, T/C (second compound 10 µM, first compound 0.01 µM) of 73.9%. For the same compound, the viability, T/C [14] was 62.8% and the viability, T/C [15] was 66.8%.
In the case of `CCN1CCN(Cc2ccc(Nc3ncc(F)c(-c4cc(F)c5nc(C)n(C(C)C)c5c4)n3)nc2)CC1` + CCN1C(C(=O)NC23CCC(C(=O)O)(CC2)CC3)C(c2cccc(Cl)c2F)C2(C(=O)Nc3cc(Cl)ccc32)C12CCCCC2, the IC50 (curve of first compound, second compound 0.03 µM) is reported as over 1000 nM, the IC50 (curve of first compound, second compound 0.0949 µM) is reported as over 1000 nM and the IC50 (curve of first compound, second compound 0.3 µM) is reported as over 1000 nM. For the same compound, the IC50 (curve of first compound, second compound 0.949 µM) was over 1000 nM, the IC50 (curve of first compound, second compound 3 µM) was over 1000 nM and the viability, T/C (second compound 0.03 µM, first compound 0.00316 µM) was 99.9%. For the same compound, the viability, T/C (second compound 0.03 µM, first compound 0.01 µM) was 99.8%, the viability, T/C (second compound 0.03 µM, first compound 0.0316 µM) was 96.1% and the viability, T/C (second compound 0.03 µM, first compound 0.1 µM) was 99.8%. For the same compound, the viability, T/C (second compound 0.03 µM, first compound 0.316 µM) was 116%, the viability, T/C (second compound 0.03 µM, first compound 1 µM) was 124% and the viability, T/C (second compound 0.0949 µM, first compound 0.00316 µM) was 113%. The viability, T/C (second compound 0.0949 µM, first compound 0.01 µM) was 112%, the viability, T/C (second compound 0.0949 µM, first compound 0.0316 µM) was 99.4% and the viability, T/C (second compound 0.0949 µM, first compound 0.1 µM) was 106%. It also gave a viability, T/C (second compound 0.0949 µM, first compound 0.316 µM) of 115%, a viability, T/C (second compound 0.0949 µM, first compound 1 µM) of 131% and a viability, T/C (second compound 0.3 µM, first compound 0.00316 µM) of 107%. For the same compound, the viability, T/C (second compound 0.3 µM, first compound 0.01 µM) was 128%, the viability, T/C (second compound 0.3 µM, first compound 0.0316 µM) was 117% and the viability, T/C (second compound 0.3 µM, first compound 0.1 µM) was 114%. For the same compound, the viability, T/C (second compound 0.3 µM, first compound 0.316 µM) was 117%, the viability, T/C (second compound 0.3 µM, first compound 1 µM) was 140% and the viability, T/C (second compound 0.949 µM, first compound 0.00316 µM) was 127%. It also gave a viability, T/C (second compound 0.949 µM, first compound 0.01 µM) of 111%, a viability, T/C (second compound 0.949 µM, first compound 0.0316 µM) of 123% and a viability, T/C (second compound 0.949 µM, first compound 0.1 µM) of 113%. It also gave a viability, T/C (second compound 0.949 µM, first compound 0.316 µM) of 120%, a viability, T/C (second compound 0.949 µM, first compound 1 µM) of 142% and a viability, T/C (second compound 3 µM, first compound 0.00316 µM) of 129%. The viability, T/C (second compound 3 µM, first compound 0.01 µM) was 123%, the viability, T/C (second compound 3 µM, first compound 0.0316 µM) was 114% and the viability, T/C (second compound 3 µM, first compound 0.1 µM) was 109%. It also gave a viability, T/C (second compound 3 µM, first compound 0.316 µM) of 119% and a viability, T/C (second compound 3 µM, first compound 1 µM) of 139%.
With `C=CC(=O)N1CCN(c2nc(=O)n(-c3c(C)ccnc3C(C)C)c3nc(-c4c(O)cccc4F)c(F)cc23)C(C)C1` (centres undefined) the viability, T/C (compound 0.0316 µM) was 92% and 102% and 106%, the viability, T/C (compound 0.1 µM) was 94.8% and 110% and 103% and the viability, T/C (compound 0.316 µM) was 103% and 93.4% and 109%. For the same compound, the viability, T/C (compound 1 µM) was 99.8% and 106% and 112%, the viability, T/C (compound 3.16 µM) was 97.6% and 103% (2×) and the viability, T/C (compound 10 µM) was 95.1% and 114% and 91.3%. The IC50 (curve of compound) was over 10000 nM.
For `C=C(F)C(=O)N1CCN(c2nc(OCC3CCCN3C)nc3c2CCN(c2cccc4cccc(Cl)c24)C3)CC1CC#N` (centres undefined) + Cc1c(S(C)(=O)=O)c(-c2cc(F)cc(N3CCN(c4ccc(NS(=O)(=O)c5ccc(NC(CCN6CCC(C(=O)OCCCP(=O)(O)O)CC6)CSc6ccccc6)c(S(=O)(=O)C(F)(F)F)c5)cc4)CC3)c2)c(-c2ccc(Cl)cc2)n1C(C)C, the IC50 [1] was over 10000 nM, the IC50 [2] was over 10000 nM and the IC50 [3] was 5960 nM. For the same compound, the IC50 [4] was 5080 nM, the IC50 [5] was 4480 nM and the viability, T/C [6] was 95.8%. The viability, T/C [7] was 94.5%, the viability, T/C (second compound 0.1 µM, first compound 0.316 µM) was 92% and the viability, T/C (second compound 0.1 µM, first compound 1 µM) was 99.9%. The viability, T/C (second compound 0.1 µM, first compound 3.16 µM) was 107%, the viability, T/C (second compound 0.1 µM, first compound 10 µM) was 74.8% and the viability, T/C [8] was 87.6%. It also gave a viability, T/C [9] of 95%, a viability, T/C (second compound 0.316 µM, first compound 0.316 µM) of 99.3% and a viability, T/C (second compound 0.316 µM, first compound 1 µM) of 86.4%. It also gave a viability, T/C (second compound 0.316 µM, first compound 3.16 µM) of 87.4%, a viability, T/C (second compound 0.316 µM, first compound 10 µM) of 83.5% and a viability, T/C [10] of 96.6%. It also gave a viability, T/C [11] of 81.3%, a viability, T/C (second compound 1 µM, first compound 0.316 µM) of 93.5% and a viability, T/C (second compound 1 µM, first compound 1 µM) of 74.9%. It also gave a viability, T/C (second compound 1 µM, first compound 3.16 µM) of 82%, a viability, T/C (second compound 1 µM, first compound 10 µM) of 25.5% and a viability, T/C [12] of 82.7%. For the same compound, the viability, T/C [13] was 80.6%, the viability, T/C (second compound 3.16 µM, first compound 0.316 µM) was 78.5% and the viability, T/C (second compound 3.16 µM, first compound 1 µM) was 83.7%. It also gave a viability, T/C (second compound 3.16 µM, first compound 3.16 µM) of 85.5%, a viability, T/C (second compound 3.16 µM, first compound 10 µM) of 4.09% and a viability, T/C [14] of 75.5%. The viability, T/C [15] was 70.1%, the viability, T/C (second compound 10 µM, first compound 0.316 µM) was 70.4% and the viability, T/C (second compound 10 µM, first compound 1 µM) was 67.1%. For the same compound, the viability, T/C (second compound 10 µM, first compound 3.16 µM) was 68.5% and the viability, T/C (second compound 10 µM, first compound 10 µM) was 8.1%.
In the case of `Cc1nc(N2CCC3(CC2)COC(C)C3N)c(CO)nc1Sc1ccnc(N)c1Cl` (centres undefined), the viability, T/C (compound 0.00949 µM) is reported as 108% and 110% and 98.4%, the viability, T/C (compound 0.03 µM) is reported as 142% and 106% and 101% and the viability, T/C (compound 0.0949 µM) is reported as 106% and 99% and 102%. For the same compound, the viability, T/C (compound 0.3 µM) was 86.8% and 96.3% and 92.5%, the viability, T/C (compound 0.949 µM) was 43% and 63.5% and 67.1% and the viability, T/C (compound 3 µM) was 13.2% and 30.9% and 37.1%. For the same compound, the IC50 (curve of compound) was 777 nM and 1550 nM and 1820 nM.
